Results: patent publication US20160175249A1, “Liposomes Containing Oligopeptide Fragments of Myelin Basic Protein, a Pharmaceutical Composition and a Method for Treatment of Multiple Sclerosis” (LIPOXEN TECHNOLOGIES LIMITED, priority 2009, published 2016)
“Also recorded” adds a separate entry of the source.

Assays:
[1] = tested on: experimental autoimmune encephalomyelitis (EAE) in DA rats; test: EAE in DA rats treated with MBP peptides in mannosylated SUV liposomes (Example 10); type: in vivo
Method: All animal studies were carried out in animal facilities of Assaf Harofeh Medical Center (Zerifin, Israel) using standard approved practices for animal care. Induction of EAE was performed in 8-9 weeks Dark Agouti (DA) female rats. Briefly, rats were injected intradermally at the base of the tail with a total volume of 200 μl of inoculum, containing […] of MBP(63-81) (ANASPEC), in saline mixed (1:1) with CFA, (incomplete Freund's adjuvant (IFA), Sigma), and 1 mg MT (strain H37 RA; Difco Laboratories, Detroit, Mich.). Animals developing symptoms of MS were included to the study. Rats were treated with different liposomes formulations (Table 3), copaxone, or placebo (vehicle) under similar conditions for 6 days. All formulations were administrated by one subcutaneous injection per day. Animals were followed up till day 28th post EAE induction. Clinical signs score was performed daily during all study periods. Score gradation was the following: 0—Normal 1—tail weakness, 2—hind leg weakness or paralysis, 3—hind leg paralysis, dragging hind limbs, 4—complete paralysis, unable to move, 5—death.
Liposomes were assembled from a mixture of egg phosphatidylcholine (PC) and one molar percent mannosylated DOG (ManDOG) (Durova OM, supra). Assembly of SUV liposomes was performed as illustrated in FIG. 3: (i) formation of irregular lipid layers during evaporation of organic solvent, followed by re-hydration leading to the multi-layer multilamellar vesicle (MLV) liposomes formation; (ii) high-pressure homogenization resulting in formation of empty SUV; (iii) freeze drying of SUV liposomes with peptides—at this stage peptides are located between collapsed SUV liposomes; and (iv) encapsulation of peptides during second re-hydration into the SUV liposomes with an average diameter of approximately 60-100 nm, containing 1.0% mannose residues on their surface. Four formulations were used for this study: each B cell epitope MBP peptide (MBP1, MBP2, and MBP3) individually and a 1:1:1 mixture (by mass) of all three peptides.
Small unilamellar vesicles (SUV) were prepared from egg phosphatidylcholine (PC) and mannosylated DOG (Espuelas S. et al., Synthesis of an amphiphilic tetraantennary mannosyl conjugate and incorporation into liposome carriers, 2003 Bioorg Med Chem Lett., August 4; 13(15):2557-60, the contents of which are hereby incorporated by reference in their entirety for all purposes) (1:100 molar ratio) by high pressure homogenization (Durova OM, supra). Briefly, lipid mixture (100 mg/ml) in CHCl3 was dried under vacuum, further re-suspended in Milli-Q water to a final lipid concentration 50 mg/ml, followed by high-pressure homogenization (20,000 psi). Resulting SUV were mixed with peptides (lipid to peptide ratio 330:1) together with excess sugar (lactose to lipid ratio 3:1) with subsequent freeze-drying. Following rehydration under controlled conditions, the resulting SUV liposomes were washed by centrifugation to remove non-incorporated materials. The washed pellets were re-suspended in PBS to the required dose volume. Peptide incorporation was estimated on the basis of reversed-phase HPLC using linear gradient of acetonitrile applied on C18 column. The z-average diameter and zeta potential of liposomes were measured on a Brookhaven ZetaPlus zetasizer at 25° C. by diluting […] of the dispersion to the required volume with 1 mM PBS or appropriate media.
To test the therapeutic potential of the four formulations, DA rates presenting with induced EAE were subcutaneously injected with one of the four mannosylated liposomal formulations, copaxone (positive control), free (un-encapsulated) MBPI peptide (negative control), and empty mannosylated liposomes (vehicle control; Table 3).
Treatment of each rat was initiated at the first sign of EAE clinical manifestation. […]

EAE-induced DA rats = test: EAE-induced DA rat model, paralysis score and mortality (DA-EAE-28-02, Example 13); type: in vivo; settings: 54 EAE induced DA rats; daily s.c. injection, 6 total; deaths/N
Method: Each of the eight MBP peptide formulations were provided as a lyophilized powder and stored at 4° C. Rehydration of each formulation with water for injection was done daily according to Table 10. MBP peptide formulations were re-suspended in water for injection (Cure Medical) and copaxone (Teva LTD) was diluted with saline to a final concentration of 450 μg/mL. Each subject animal was administered the test formulation for 6 consecutive days by subcutaneous injection.
8-9 week old Dark Agouti (DA) female rats (Harlan Laboratories, Inc.), weighing between 110 and 145 grams were used as the test subjects. The health status of the animals used in this study was examined on arrival. Only animals in good health were acclimatized to laboratory conditions and were used in the study. Animals were provided food ad libitum and free access to drinking water. […]
The rats were evaluated up daily starting 24 hours after immunization. […]
9-11 days post EAE induction, 54 animals were divided to 10 groups (5-6 rats in each), and blood was collected from 2 rats of each group before the initiation of the treatment. […] The animals were maintained and evaluated until day 28th post EAE-induction. […]
Animals were observed individually and clinical signs were recorded once daily during all study periods. […] The body weight of each animals was determined daily during all study periods. […]

Substance: glatiramer acetate [copaxone]
- mean disease score course (FIG. 4) ([1]; 6 daily s.c. injections from first clinical sign): EAE amelioration rate similar to treatment with the MBP1/2/3 SUV formulation; also recorded: did not fully recover from EAE after the initial attack
- Mortality ([1]; one s.c. injection per day, 6 injections, deaths/N): 0/12
- Median Cumulative Disease Score ([1]; one s.c. injection per day, 6 injections, doses per Table 3): 18.5
- Median Maximal Disease Score (IQR) ([1]; one s.c. injection per day, 6 injections, doses per Table 3, score 0-5): 2 (1.25)^1
- Mortality Rate (EAE-induced DA rats): 1/5
